Measurements taken from the NIST ThermoML archive (doi:10.1021/je200673a).

Assay: molar heat capacity at constant pressure
Conditions: 101.33 kPa, Crystal, Vacuum adiabatic calorimetry

C(#Cc1ccccc1)c1ccccc1 [1,2-diphenylethyne]
Conditions	molar heat capacity at constant pressure [J/K/mol]
122.93 K	102.01
123.75 K	102.53
124.57 K	103.09
125.39 K	103.65
126.22 K	103.97
127.04 K	104.54
127.87 K	104.88
128.69 K	105.58
129.52 K	106.14
130 K	106.33
130.34 K	106.59
131.19 K	107.21
132.02 K	107.62
132.85 K	107.99
133.68 K	108.55
134.51 K	108.88
135.34 K	109.34
136.17 K	110.18
137.01 K	110.88
137.84 K	111.19
138.67 K	111.61
139.51 K	112.13
140 K	112.5
140.35 K	112.75
141.18 K	113.14
142.02 K	113.86
142.86 K	114.26
143.7 K	114.81
144.56 K	115.47
145.4 K	115.88
146.24 K	116.41
147.08 K	117.03
147.93 K	117.53
148.77 K	118.01
149.61 K	118.61
150 K	118.79
150.46 K	119.09
151.31 K	119.49
152.15 K	120.1
153 K	120.73
153.85 K	121.21
154.7 K	121.63
155.55 K	122.47
156.4 K	122.86
157.25 K	123.14
158.14 K	124.01
158.99 K	124.43
159.85 K	125.3
160 K	125.14
160.7 K	125.66
161.56 K	125.9
162.42 K	126.63
163.28 K	127.28
164.14 K	127.86
165 K	128.31
165.86 K	128.78
166.72 K	129.29
167.58 K	130.02
168.45 K	130.59
169.31 K	131.32
170 K	131.53
170.18 K	131.71
171.05 K	132.15
171.96 K	132.79
172.83 K	133.42
173.7 K	133.85
174.57 K	134.6
175.44 K	135.11
176.31 K	135.5
177.19 K	135.99
178.06 K	136.73
178.94 K	137.42
179.82 K	137.82
180 K	138
180.7 K	138.43
181.58 K	138.91
182.46 K	139.54
183.34 K	140.11
184.22 K	140.8
185.11 K	141.42
186.05 K	142.12
186.93 K	142.62
187.82 K	143.19
188.71 K	143.74
189.6 K	144.35
190 K	144.57
190.5 K	144.84
191.39 K	145.31
192.29 K	146.01
193.18 K	146.68
194.08 K	147.37
194.98 K	147.95
196.78 K	149.26
197.68 K	149.46
198.59 K	150.29
199.5 K	151.03
200 K	151.06
200.7 K	151.27
202.04 K	151.99
203.39 K	152.98
204.73 K	154.54
206.08 K	154.9
207.42 K	155.84
208.77 K	156.73
210 K	157.57
210.11 K	157.51
211.46 K	158.55
212.8 K	159.5
214.14 K	160.32
215.49 K	161.29
216.83 K	162.37
218.17 K	163
219.51 K	164.34
220 K	164.63
220.86 K	165.39
222.28 K	166.49
